Laboratory results reported in US12473339B2, “Acylated glucagon analogues” (Zealand Pharma A/S, priority 2013, dated 2025).
*1 amine or outer side, *2 acyl side, *3 side chain or, on linkers, in order; H or OH if unused. Where a SMILES comes first, the peptide text is derived from it. Side-chain parts run from the residue outwards. [ ]: non-standard residue; d: D form. The star is where a group is joined. C18 diacid = O=C(O)CCCCCCCCCCCCCCCCC(=O)*; γGlu = O=C(O)[C@H](CCC(=O)[*:2])N[*:1]; Ac4c = NC1(C(=O)O)CCC1; AEEA = NCCOCCOCC(=O)O

Columns and labels:
[1] = target: T1, human glucagon-like peptide 1 receptor (GLP-1R) (Homo sapiens, UniProt P43220); test: GLP-1 receptor efficacy assay (cAMP AlphaScreen, CHO cells); type: cell-based; details: for Ratio GLP-1/Glucagon: EC50 [GLP-1R] / EC50 [Glucagon-R], human receptors in CHO-K1; for EC50: cAMP formation, CHO cells expressing human GLP-1-R, 15 min, read-out: EC50 hGLP-1R CHO-K1
T1 construct: expressed in transfected cells
T1 sequence (P43220 24-463): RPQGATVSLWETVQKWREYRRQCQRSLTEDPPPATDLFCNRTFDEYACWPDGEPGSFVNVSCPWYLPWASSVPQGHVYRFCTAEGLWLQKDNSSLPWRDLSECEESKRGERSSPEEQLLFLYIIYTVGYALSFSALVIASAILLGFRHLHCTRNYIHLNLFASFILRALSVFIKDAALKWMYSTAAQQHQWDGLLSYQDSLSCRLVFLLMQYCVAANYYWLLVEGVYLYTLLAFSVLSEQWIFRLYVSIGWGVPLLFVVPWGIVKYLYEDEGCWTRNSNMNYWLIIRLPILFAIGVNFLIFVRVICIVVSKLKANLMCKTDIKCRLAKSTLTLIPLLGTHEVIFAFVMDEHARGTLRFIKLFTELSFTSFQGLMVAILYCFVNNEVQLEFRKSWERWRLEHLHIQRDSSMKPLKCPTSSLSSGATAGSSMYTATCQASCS
Description: (§1) The cDNA encoding either the human glucagon receptor (Glucagon-R) (primary accession number P47871) or the human glucagon-like peptide 1 receptor (GLP-1R) (primary accession number P43220) were synthesized and cloned into a mammalian expression vector containing a Zeocin resistance marker.
(§2) The mammalian expression vectors encoding the Glucagon-R or the GLP-1-R were transfected into Chinese hamster ovary (CHO) cells by the Attractene method. Stably expressing clones were obtained by Zeocin selection (250 μg/mL) upon limited dilution of cells resistant to the selection pressure. Glucagon-R and GLP-1-R cell clones expressing were picked, propagated and tested in the Glucagon-R and GLP-1-R efficacy assays as described below. One Glucagon-R expressing clone and one GLP-1-R expressing clone were chosen for compound profiling.
(§3) CHO cells expressing the human Glucagon-R, or human GLP-1-R were seeded 24 hours prior to the assay at 30,000 cells per well in 96-well microtiter plates in culture in 100 μl growth medium. On the day of analysis, growth medium was removed and the cells were washed once with 200 μl of assay buffer (Krebs-Ringer-buffer—KRBH). The buffer was removed and the cells were incubated for 15 min at room temperature in 10 μl KRBH (KRBH+10 mM HEPES, 5 mM NaHCO3, 0.1% (V/V) BSA) with 0.1 mM IBMX in deionized water containing increasing concentrations of test peptides. The reaction was stopped by the addition of lysis buffer (0.1% w/v BSA, 5 mM HEPES, 0.3% v/v Tween-20). After cell lysis for 10 min at room temperature, lysates were transferred to 384-well plates and 10 μl of acceptor/donorbead mixture as contained in the AlphaScreen™ cAMP Functional Assay Kit was added. After one hour of incubation at room temperature in the dark, the cAMP content was determined applying the AlphaScreen™ cAMP Functional Assay Kit from Perkin-Elmer according to manufacturer instructions. EC50 and relative efficacies compared to reference compounds (glucagon and GLP-1) were calculated applying computer aided curve fitting. The GLP-1/glucagon ratio is calculated as defined earlier.

[2] = Pharmacokinetic parameters after intravenous administration to rats; details: male, Han/Wistar, rat, in vivo, 20 nmol/kg
Method: Pharmacokinetic parameters of the test compounds were determined after intravenous administration to Han/Wistar rats. The acylated GLP-1 analogue semaglutide was also tested for comparison purposes. Male Wistar rats were obtained from Charles River (Germany) weighing approximately 180 to 210 g at time of arrival at the test facility. Rats were caged in European standard rat cages type IV with light cycle of 12-hour dark and 12-hour light. During the study rats were housed in standard rat cages type III. Both diet Altromin 1324 (Altromin, Germany) and water was administered ad libitum during the whole experimental period. The animals were housed in the test facility for at least 4 days in order to assure proper acclimatization. The compounds were first dissolved in 0.1% aqueous ammonia to a nominal concentration of 2 mg/ml, and then diluted to the desired dosing strength (10 μM) in sterile PBS containing 25 mM phosphate buffer, pH 7.4. Intravenous injections corresponding to 20 nmol/kg were given via a lateral tail vein. Blood samples (200 μl) were collected from the periorbital plexus at time points 0.08, 0.25, 0.5, 1, 2, 4, 8, 24, 32 and 48 h post dosing into K3EDTA tubes and centrifuged for 5 minutes at 4° C. within 20 minutes of sampling. […] Individual plasma concentration-time profiles were analysed by a non-compartmental approach using ToxKin™ version 3.2 (Unilog IT Services), and the resulting pharmacokinetic parameters were determined.

[3] = target: T2, human glucagon receptor (Glucagon-R) (Homo sapiens, UniProt P47871); test: Glucagon receptor efficacy assay (cAMP AlphaScreen, CHO cells); type: cell-based; details: cAMP formation, CHO cells expressing human Glucagon-R, 15 min; read-out: EC50 hGCGR CHO-K1
T2 construct: expressed in transfected cells
T2 sequence (P47871 26-477): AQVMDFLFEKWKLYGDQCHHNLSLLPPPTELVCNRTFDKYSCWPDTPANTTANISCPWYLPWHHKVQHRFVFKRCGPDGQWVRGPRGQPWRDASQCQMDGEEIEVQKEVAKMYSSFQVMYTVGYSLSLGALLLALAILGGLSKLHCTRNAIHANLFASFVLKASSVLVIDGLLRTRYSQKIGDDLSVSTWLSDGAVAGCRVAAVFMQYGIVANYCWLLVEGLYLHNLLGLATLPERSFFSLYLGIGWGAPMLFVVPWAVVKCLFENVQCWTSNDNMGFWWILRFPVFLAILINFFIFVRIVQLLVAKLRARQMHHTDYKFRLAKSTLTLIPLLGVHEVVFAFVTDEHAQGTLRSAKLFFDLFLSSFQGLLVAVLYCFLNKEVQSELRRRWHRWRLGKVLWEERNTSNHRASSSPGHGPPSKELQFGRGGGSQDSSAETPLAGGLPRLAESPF
Description: as §1, §2, §3

Row | Ratio GLP-1/Glucagon [1] | EC50 [1] | MRT [2] | clearance [2] | half-life [2] | EC50 [3] | Structure (SMILES)
1 | 1.56 | 0.7 nM | 17.6 h | 6.6 mL/h/kg | 13.7 h | – | CC[C@H](C)[C@H](NC(=O)[C@H](Cc1ccccc1)NC(=O)[C@H](CC(=O)O)NC(=O)[C@H](CCCCN)NC(=O)[C@H](C)NC(=O)[C@H](CCCNC(=N)N)NC(=O)[C@H](CCCCNC(=O)COCCOCCNC(=O)COCCOCCNC(=O)CC[C@H](NC(=O)CCCCCCCCCCCCCCCCC(=O)O)C(=O)O)NC(=O)[C@H](CCC(=O)O)NC(=O)[C@H](CC(=O)O)NC(=O)[C@H](CC(C)C)NC(=O)[C@H](Cc1ccc(O)cc1)NC(=O)[C@H](CCCCN)NC(=O)[C@H](CO)NC(=O)[C@H](Cc1ccc(O)cc1)NC(=O)[C@H](CC(=O)O)NC(=O)[C@H](CO)NC(=O)[C@@H](NC(=O)[C@H](Cc1ccccc1)NC(=O)[C@@H](NC(=O)CNC(=O)[C@H](CCC(N)=O)NC(=O)C1(NC(=O)[C@@H](N)Cc2c[nH]cn2)CCC1)[C@@H](C)O)[C@@H](C)O)C(=O)N[C@@H](CCC(=O)O)C(=O)N[C@@H](Cc1c[nH]c2ccccc12)C(=O)N[C@@H](CC(C)C)C(=O)N[C@@H](CCC(=O)O)C(=O)N[C@@H](CO)C(=O)N[C@@H](C)C(N)=O [Compound 4, H-H-Ac4c-QGTFTSDYSKYLDE-K([17-carboxy-heptadecanoyl]-isoGlu-Peg3-Peg3)-RAKDFIEWLESA-NH2] (H-H[Ac4c]QGTFTSDYSKYLDEK([AEEA-AEEA-γGlu-C18 diacid])RAKDFIEWLESA-NH2)
2 | 0.47 | 0.7 nM | 28.7 h | 3.36 mL/h/kg | 23.4 h | – | CC[C@H](C)[C@H](NC(=O)[C@H](Cc1ccccc1)NC(=O)[C@H](CC(=O)O)NC(=O)[C@H](CCCCN)NC(=O)[C@H](C)NC(=O)[C@H](C)NC(=O)[C@H](CCCNC(=N)N)NC(=O)[C@H](CCC(=O)O)NC(=O)[C@H](CC(=O)O)NC(=O)[C@H](CC(C)C)NC(=O)[C@H](Cc1ccc(O)cc1)NC(=O)[C@H](CCCCN)NC(=O)[C@H](CO)NC(=O)[C@H](Cc1ccc(O)cc1)NC(=O)[C@H](CC(=O)O)NC(=O)[C@H](CO)NC(=O)[C@@H](NC(=O)[C@H](Cc1ccccc1)NC(=O)[C@@H](NC(=O)CNC(=O)[C@H](CCC(N)=O)NC(=O)C(C)(C)NC(=O)[C@@H](N)Cc1c[nH]cn1)[C@@H](C)O)[C@@H](C)O)C(=O)N[C@@H](CCCCNC(=O)CNC(=O)CNC(=O)[C@H](CO)NC(=O)CNC(=O)[C@H](CO)NC(=O)CNC(=O)CC[C@H](NC(=O)CCCCCCCCCCCCCCCCC(=O)O)C(=O)O)C(=O)N[C@@H](Cc1c[nH]c2ccccc12)C(=O)N[C@@H](CC(C)C)C(=O)N[C@@H](CCC(=O)O)C(=O)N[C@@H](CO)C(=O)N[C@@H](C)C(N)=O [Compound 3]
3 | 6.86 | – | – | – | – | 0.07 nM | CC[C@H](C)[C@H](NC(=O)[C@H](Cc1ccccc1)NC(=O)[C@H](CC(=O)O)NC(=O)[C@H](CCCCN)NC(=O)[C@H](C)NC(=O)[C@H](CCCNC(=N)N)NC(=O)[C@H](CCCCNC(=O)CC[C@H](NC(=O)CCCCCCCCCCCCCCCCC(=O)O)C(=O)O)NC(=O)[C@H](CCC(=O)O)NC(=O)[C@H](CC(=O)O)NC(=O)[C@H](CC(C)C)NC(=O)[C@H](Cc1ccc(O)cc1)NC(=O)[C@H](CCCCN)NC(=O)[C@H](CO)NC(=O)[C@H](Cc1ccc(O)cc1)NC(=O)[C@H](CC(=O)O)NC(=O)[C@H](CO)NC(=O)[C@@H](NC(=O)[C@H](Cc1ccccc1)NC(=O)[C@@H](NC(=O)CNC(=O)[C@H](CCC(N)=O)NC(=O)C1(NC(=O)[C@@H](N)Cc2c[nH]cn2)CCC1)[C@@H](C)O)[C@@H](C)O)C(=O)N[C@@H](CCC(=O)O)C(=O)N[C@@H](Cc1c[nH]c2ccccc12)C(=O)N[C@@H](CC(C)C)C(=O)N[C@@H](CCC(=O)O)C(=O)N[C@@H](CO)C(=O)N[C@@H](C)C(N)=O [Compound 12, H-H-Ac4c-QGTFTSDYSKYLDE-K([17-carboxy-heptadecanoyl]-isoGlu)-RAKDFIEWLESA-NH2] (H-H[Ac4c]QGTFTSDYSKYLDEK([γGlu-C18 diacid])RAKDFIEWLESA-NH2)
4 | 4.61 | – | – | – | – | 0.18 nM | CC[C@H](C)[C@H](NC(=O)[C@H](Cc1ccccc1)NC(=O)[C@H](CC(=O)O)NC(=O)[C@H](CCCCN)NC(=O)[C@H](C)NC(=O)[C@H](C)NC(=O)[C@H](CCCNC(=N)N)NC(=O)[C@H](CCCCNC(=O)CNC(=O)CNC(=O)[C@H](CO)NC(=O)CNC(=O)[C@H](CO)NC(=O)CNC(=O)CC[C@H](NC(=O)CCCCCCCCCCCCCCCCC(=O)O)C(=O)O)NC(=O)[C@H](CC(=O)O)NC(=O)[C@H](CC(C)C)NC(=O)[C@H](Cc1ccc(O)cc1)NC(=O)[C@H](CCCCN)NC(=O)[C@H](CO)NC(=O)[C@H](Cc1ccc(O)cc1)NC(=O)[C@H](CC(=O)O)NC(=O)[C@H](CO)NC(=O)[C@@H](NC(=O)[C@H](Cc1ccccc1)NC(=O)[C@@H](NC(=O)CNC(=O)[C@H](CCC(N)=O)NC(=O)C(C)(C)NC(=O)[C@@H](N)Cc1c[nH]cn1)[C@@H](C)O)[C@@H](C)O)C(=O)N[C@@H](CCC(=O)O)C(=O)N[C@@H](Cc1c[nH]c2ccccc12)C(=O)N[C@@H](CC(C)C)C(=O)N[C@@H](CCC(=O)O)C(=O)N[C@@H](CO)C(=O)N[C@@H](C)C(N)=O [Compound 5, H-H-Aib-QGTFTSDYSKYLD-K([17-carboxy-heptadecanoyl]-isoGlu-GSGSGG)-RAAKDFIEWLESA-NH2]
